In patent publication US4204003A, “N-(2-Aminocyclopentyl)-N-alkanoylanilides as CNS anti-depressants” (The Upjohn Company, priority 1978, dated 1980):

What was measured:
[1] = literature (J. Pharmaceutical Sciences, December 1974); cited from earlier work
yohimbine toxicity = assay: standard yohimbine toxicity potentiation test; format: in vivo; settings: ip; intraperitoneally
oxotremorine hypothermia = assay: standard oxotremorine hypothermia antagonism test; format: in vivo; settings: ip; intraperitoneally
[2] = literature (J. Pharmaceutical Sciences, December 1974); cited from earlier work; remark: listed apart in the source
[3] = rat liver microsome incubation system (metabolism); format: in vitro ADME; settings: from the corresponding N-[2-(dimethylamino)cyclopentyl]propionanilide compound

Which diuretic activity [1] does the source give for `COc1ccc(C(O)C2CCCCC2N2CCCCC2)cc1` (stereo not shown) [[2-(N-piperidinylcyclohexyl]-(4-methoxyphenyl)methanol] here?
Its diuretic activity is “Diuretic activity is alleged”.

Which ED50 (yohimbine toxicity) does the source give for `CCC(=O)N(c1ccc(Cl)c(Cl)c1)[C@@H]1CCC[C@H]1NC` (relative stereo) [Trans-3,4-dichloro-N-[2-(N-methylamino)-cyclopentyl]propionanilide] here?
Its ED50 is < 1 mg/kg.

And the ED50 (oxotremorine hypothermia)?
Its ED50 is < 1 mg/kg.

Which CNS properties [2] does the source give for `ON(c1ccccc1)C1CCCCC1N1CCCC1` (stereo not shown) [N-[2-(N-pyrrolidinyl)cyclohexyl]-N-phenylhydroxylamine] here?
The CNS properties was “do not have useful CNS properties”.

For “2-(N-methylamino)cyclopentylpropionanilide”, which “metabolite formed in rat liver microsome incubation” value [3] is on record?
The value was “is a metabolite of the corresponding N-[2-(dimethylamino)cyclopentyl]propionanilide compound”.

Which results are given for `CCC(=O)N(c1ccc(Cl)c(Cl)c1)[C@@H]1CCC[C@H]1N` (relative stereo) [Trans-3,4-dichloro-N-(2-aminocyclopentyl)-propionanilide]?
ED50 (yohimbine toxicity): < 1 mg/kg; ED50 (oxotremorine hypothermia): < 1 mg/kg
